From paper PMC6116579, “Catalytic and Structural Characterization of a Browning-Related Protein in Oriental Sweet Melon (Cucumis Melo var. Makuwa Makino)” (Frontiers in Chemistry, 2018)

Molecular target: T1, BRP (browning-related protein with PPO activity; matched to endochitinase MCHT-2) (Cucumis melo, UniProt Q9AVA8)
T1 construct: native, partially purified from fruit (ammonium sulfate, DEAE Sepharose, Sephacryl S200); about 18 kDa SDS-PAGE, 37 kDa native PAGE, homodimer
T1 sequence (Q9AVA8 21-311): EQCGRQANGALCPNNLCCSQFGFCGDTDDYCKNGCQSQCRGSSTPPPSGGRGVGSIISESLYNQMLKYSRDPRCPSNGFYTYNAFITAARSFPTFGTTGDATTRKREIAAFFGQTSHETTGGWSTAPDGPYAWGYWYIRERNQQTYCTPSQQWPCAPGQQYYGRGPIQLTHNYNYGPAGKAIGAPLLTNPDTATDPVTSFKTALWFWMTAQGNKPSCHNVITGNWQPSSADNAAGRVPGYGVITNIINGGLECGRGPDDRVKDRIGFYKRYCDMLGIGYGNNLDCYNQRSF
Experiment: absorbance at […] nm, Lineweaver-Burk
Assay type: biochemical
Conditions: oxidation by air oxygen; 0.05 M Tris-HCl pH 7.0, 25 °C

Km: 42.8 mM
SMILES: Oc1cccc(O)c1O [Pyrogallol]
